# Values of other authors as cited in patent US4970081A, “Controlled-release, low-dose aspirin formulation and method of treating vascular occlusive disease therewith” (Sterling Drug Inc., priority 1989, dated 1990).
# What was measured:
# [1] = prior art dosage forms
# prostacyclin (PC) = conditions: 1 mg every 30 minutes for 10 hours
# [2] = tested on: endothelial cyclooxygenase; conditions: at the doses given in most clinical trials
# [3] = tested on: vascular occlusive events; conditions: oral aspirin, patients
# thromboxane B2 (TX) = conditions: 1 mg every 30 minutes for 10 hours; at 10 hours
# [4] = tested on: cyclooxygenase in platelets; conditions: by acetylating cyclooxygenase in platelets
SMILES,release rate [1] [mg per hour],urinary PC (prostacyclin (PC)),effect on endothelial cyclooxygenase [2],protection from vascular occlusive events [3],decrease in serum TX (thromboxane B2 (TX)) [%],effect on platelet adhesiveness [4]
Nc1ccc(S(N)(=O)=O)cc1 [Sulfanilamide],4.5,–,–,–,–,–
CC(=O)Oc1ccccc1C(=O)O [aspirin],–,unaltered,inhibits endothelial cyclooxygenase,statistically significant protection,66,significantly decreases platelet adhesiveness
